The text below walks through data of patent US20240268395A1, “ANTIFUNGAL PROTEIN COMPOSITION” (GEAENZYMES CO., priority 2019, published 2024).

The test system of data set [1] is Trichoderma reesei, Fusarium oxysporum, Rhizopus oligosporum, Aspergillus niger and two environmental isolates. In words: Fungal inhibition in agar plates containing embedded antifungal peptides. Type of data set: cell-based. The settings on record: 150 μg/ml, without carrier protein. The procedure: FIG. 1. Fungal inhibition in agar plates containing a composition comprising Antifungal Peptide SEQ ID NO: 1 after 2 days at 30° C. Fungal strains inoculated in the plate: 1: Trichoderma reesei; 2: Fusarium oxysporum; 3: Rhizopus oligosporum; 4: household environmental isolated; 5: Aspergillus niger; 6: bread contamination environmental isolate. Panel A: 150 μg/ml of peptidic antifungal composition with six histidine amino-terminal residues. Panel B: 150 μg/ml of peptidic antifungal composition with six histidine amino-terminal residues pre-treated for 10 minutes at 90° C. Panel C: 175 μg/ml of peptidic antifungal composition fused to a carrier protein. Panel D: negative control without peptidic antifungal composition.
Antifungal peptide having an amino acid sequence as set forth in SEQ ID NO: 1 (Table 1) was genetically fused to 6 amino-terminal histidine residues, expressed and produced in a recombinant manner in Escherichia coli, and after cell lysis, peptide purified using immobilized metal affinity chromatography (IMAC) with nickel resin. A second variant of antifungal peptide having an amino acid sequence as set forth in SEQ ID NO: 1 was also generated, fusing the antifungal peptide to a carrier protein. […] Fungal inhibition was then assessed in agar plates containing embedded antifungal peptides, incubating 2 days at 30° C. […]

For the next data set, the system named is Aspergillus niger. As to the kind of experiment: Agar dilution assay, inhibition of mycelial growth from spores. The note with it: fused to carrier solubility protein. In kind it is cell-based. An excerpt:
FIG. 8. Agar dilution assay to assess the antifungal activity of the peptide-protein fusion SEQ ID NO: 1-MBP against Aspergillus niger. Left, representative images of agar dilution assays performed with serial dilutions of antifungal peptide-MBP fusions added to agar before solidification. Assays tested for the inhibition of mycelial growth from A. niger spores. Protein storage buffer was used as a negative control for growth inhibition, and Zeocin was used as positive control. Right, IC50 values for the peptide-protein fusion SEQ ID NO: 1-MBP. Aggregated results from up to three independent experiments were used to interpolate IC50 from the fitted curve.
FIGS. 9A-9B. Agar dilution assay comparing the antifungal activity of the peptide-protein fusions SEQ ID NO: 28-MBP and SEQ ID NO: 29-MBP against Aspergillus niger. FIG. 9A: Representative images of agar dilution assays performed with serial dilutions of antifungal peptide-MBP fusions added to agar before solidification. Assays tested for the inhibition of mycelial growth from A. niger spores. […]
To further test the versatility of antifungal peptides, these were genetically fused to a variety of different carrier solubility proteins, and their antifungal activity tested. […] Mycelium length was then estimated and analyzed (FIGS. 3, 4, and 5). […]
A general note: Agar dilution tests growth on a series of plates holding different concentrations.

Ends that are not written are not given here.

As for “VGECVRGRCPSGMCCSQFGYCGKGPKYCGR (not fully specified (N-terminus); cysteine pairing not given here) [SEQ ID NO: 1, tested genetically fused to 6 amino-terminal histidine residues, produced recombinantly in Escherichia coli]”, in data set [1] (six histidine amino-terminal residues, 2 days at 30° C.), the “fungal growth in agar plates compared with control” value is reported as “impacts the growth of all fungi when compared with the control condition, although to a lesser extent with the environmental fungal isolates”. Besides, the “activity after pre-incubation at 90° C. (thermostability)” value in data set [1] (pre-treated for 10 minutes at 90° C.) is “does not impair its activity”.

In the case of “KRCGSQAGCPNGHCCSQYGFCGFGPEYCGRG [SEQ ID NO: 29]”, the “potency at sub-MIC concentrations (reflected in the IC50), comparison of the three peptides” value in the data set with Aspergillus niger is “highest potency”.
